Measured values taken from ChEMBL document CHEMBL4706545, “Antiproliferative effect of mitochondria-targeting allobetulin 1,2,3-triazolium salt derivatives and their mechanism of inducing apoptosis of cancer cells” (Eur J Med Chem, 2020).

Key:
[1] = test system: ECa-109 cell line; experiment: Cytotoxicity against human ECa-109 cells assessed as reduction in cell viability incubated for 48 hrs by MTT assay; assay type: functional, cell-based; details: ECa-109, 48 h
[2] = test system: HeLa; experiment: Cytotoxicity against human HeLa cells assessed as reduction in cell viability incubated for 48 hrs by MTT assay; assay type: functional, cell-based
[3] = test system: SGC-7901; experiment: Cytotoxicity against human SGC-7901 cells assessed as reduction in cell viability incubated for 48 hrs by MTT assay; assay type: functional, cell-based; details: SGC-7901, 48 h
[4] = test system: HepG2; experiment: Cytotoxicity against human HepG2 cells assessed as reduction in cell viability incubated for 48 hrs by MTT assay; assay type: functional, cell-based; details: HepG2, 48 h
[5] = test system: L02; experiment: Cytotoxicity against human HL7702 cells assessed as reduction in cell viability incubated for 48 hrs by MTT assay; assay type: ADME, cell-based; details: L02, 48 h

| Compound | IC50 [1] [µM] | IC50 [2] [µM] | IC50 [3] [µM] | IC50 [4] [µM] | IC50 [5] [µM] |
| --- | --- | --- | --- | --- | --- |
| CCCCCCn1n[n+](C)c2c1C(C)(C)[C@@H]1CC[C@]3(C)[C@H](CC[C@@H]4[C@H]5[C@H]6OC[C@@]5(CCC6(C)C)CC[C@]43C)[C@@]1(C)C2 | 3.08 | 2.45 | 1.65 | 1.93 | 1.33 |
| CCCCn1n[n+](C)c2c1C(C)(C)[C@@H]1CC[C@]3(C)[C@H](CC[C@@H]4[C@H]5[C@H]6OC[C@@]5(CCC6(C)C)CC[C@]43C)[C@@]1(C)C2 | 5.14 | 3.99 | 3.25 | 3.97 | 2.2 |
| C[n+]1nn(CCc2c[nH]c3ccccc23)c2c1C[C@]1(C)[C@H]3CC[C@@H]4[C@H]5[C@H]6OC[C@@]5(CCC6(C)C)CC[C@@]4(C)[C@]3(C)CC[C@H]1C2(C)C | 3.13 | 3.19 | 3.05 | 3.17 | 2.9 |
| C[n+]1nn(Cc2ccc(Cl)cc2)c2c1C[C@]1(C)[C@H]3CC[C@@H]4[C@H]5[C@H]6OC[C@@]5(CCC6(C)C)CC[C@@]4(C)[C@]3(C)CC[C@H]1C2(C)C | 2.16 | 2.45 | 2.68 | 1.73 | 1.62 |
| C[n+]1nn(Cc2ccc(C(F)(F)F)cc2)c2c1C[C@]1(C)[C@H]3CC[C@@H]4[C@H]5[C@H]6OC[C@@]5(CCC6(C)C)CC[C@@]4(C)[C@]3(C)CC[C@H]1C2(C)C | 3.18 | 3.06 | 2.84 | 2.49 | 2.26 |
| C[n+]1nn(Cc2ccc(Cl)c(Cl)c2)c2c1C[C@]1(C)[C@H]3CC[C@@H]4[C@H]5[C@H]6OC[C@@]5(CCC6(C)C)CC[C@@]4(C)[C@]3(C)CC[C@H]1C2(C)C | 3.03 | 2.83 | 2.99 | 2.96 | 2.29 |
| CC1(C)CC[C@]23CC[C@]4(C)[C@H](CC[C@@H]5[C@@]6(C)Cc7nnn(Cc8ccccc8Cl)c7C(C)(C)[C@@H]6CC[C@]54C)[C@H]2[C@H]1OC3 | 58.9 | 41.3 | 49.9 | 56.1 | 40.5 |
| CC1(C)CC[C@]23CC[C@]4(C)[C@H](CC[C@@H]5[C@@]6(C)Cc7nnn(CCc8c[nH]c9ccccc89)c7C(C)(C)[C@@H]6CC[C@]54C)[C@H]2[C@H]1OC3 | 18.2 | 22.1 | 19.8 | 14.4 | 10.3 |
| COc1cc(Cn2n[n+](C)c3c2C(C)(C)[C@@H]2CC[C@]4(C)[C@H](CC[C@@H]5[C@H]6[C@H]7OC[C@@]6(CCC7(C)C)CC[C@]54C)[C@@]2(C)C3)cc(OC)c1OC | 3.35 | 3.8 | 5.56 | 3.04 | 3.8 |
| C[n+]1nn(Cc2ccccc2)c2c1C[C@]1(C)[C@H]3CC[C@@H]4[C@H]5[C@H]6OC[C@@]5(CCC6(C)C)CC[C@@]4(C)[C@]3(C)CC[C@H]1C2(C)C | 3.29 | 3.02 | 2.83 | 2.89 | 2 |
| COC(Cn1n[n+](C)c2c1C(C)(C)[C@@H]1CC[C@]3(C)[C@H](CC[C@@H]4[C@H]5[C@H]6OC[C@@]5(CCC6(C)C)CC[C@]43C)[C@@]1(C)C2)OC | 5.53 | 5.39 | 6.67 | 6.33 | 4.1 |
| COc1ccc(CCn2nnc3c2C(C)(C)[C@@H]2CC[C@]4(C)[C@H](CC[C@@H]5[C@H]6[C@H]7OC[C@@]6(CCC7(C)C)CC[C@]54C)[C@@]2(C)C3)cc1 | 51.8 | 42.5 | 45.2 | 36.6 | 39.3 |
| C[n+]1nn(Cc2ccccc2F)c2c1C[C@]1(C)[C@H]3CC[C@@H]4[C@H]5[C@H]6OC[C@@]5(CCC6(C)C)CC[C@@]4(C)[C@]3(C)CC[C@H]1C2(C)C | 3.08 | 2.42 | 2.56 | 2.99 | 1.68 |
| CC1(C)CC[C@]23CC[C@]4(C)[C@H](CC[C@@H]5[C@@]6(C)Cc7nnn(Cc8ccccc8)c7C(C)(C)[C@@H]6CC[C@]54C)[C@H]2[C@H]1OC3 | 53.2 | > 80 | 55.7 | 59.4 | 38.5 |
| COc1ccc(Cn2nnc3c2C(C)(C)[C@@H]2CC[C@]4(C)[C@H](CC[C@@H]5[C@H]6[C@H]7OC[C@@]6(CCC7(C)C)CC[C@]54C)[C@@]2(C)C3)cc1 | 17.2 | 12.7 | 16.9 | 13.7 | 11.2 |
| CCCCn1nnc2c1C(C)(C)[C@@H]1CC[C@]3(C)[C@H](CC[C@@H]4[C@H]5[C@H]6OC[C@@]5(CCC6(C)C)CC[C@]43C)[C@@]1(C)C2 | 10.5 | 6.26 | 6.61 | 10.7 | 7.86 |
| CC1(C)CC[C@]23CC[C@]4(C)[C@H](CC[C@@H]5[C@@]6(C)Cc7nnn(Cc8ccc(Cl)cc8)c7C(C)(C)[C@@H]6CC[C@]54C)[C@H]2[C@H]1OC3 | 64.2 | 51.3 | 61.4 | 66 | 44.9 |
| CCCCCCCCn1nnc2c1C(C)(C)[C@@H]1CC[C@]3(C)[C@H](CC[C@@H]4[C@H]5[C@H]6OC[C@@]5(CCC6(C)C)CC[C@]43C)[C@@]1(C)C2 | > 80 | > 80 | > 80 | > 80 | > 80 |
| COc1cccc(Cn2n[n+](C)c3c2C(C)(C)[C@@H]2CC[C@]4(C)[C@H](CC[C@@H]5[C@H]6[C@H]7OC[C@@]6(CCC7(C)C)CC[C@]54C)[C@@]2(C)C3)c1 | 2.81 | 2.33 | 1.81 | 2.18 | 1.72 |
| CC1(C)CC[C@]23CC[C@]4(C)[C@H](CC[C@@H]5[C@@]6(C)Cc7nnn(Cc8c(F)cccc8Cl)c7C(C)(C)[C@@H]6CC[C@]54C)[C@H]2[C@H]1OC3 | 27 | 23.3 | 26.1 | 24.3 | 19.5 |
| COc1cc(Cn2nnc3c2C(C)(C)[C@@H]2CC[C@]4(C)[C@H](CC[C@@H]5[C@H]6[C@H]7OC[C@@]6(CCC7(C)C)CC[C@]54C)[C@@]2(C)C3)cc(OC)c1OC | 6.24 | 9.07 | 10.7 | 12.1 | 6.65 |
| CC1(C)CC[C@]23CC[C@]4(C)[C@H](CC[C@@H]5[C@@]6(C)Cc7nnn(Cc8ccc(F)cc8F)c7C(C)(C)[C@@H]6CC[C@]54C)[C@H]2[C@H]1OC3 | 10.9 | 10.2 | 9.02 | 6.56 | 7.47 |
| COc1cccc(CCn2n[n+](C)c3c2C(C)(C)[C@@H]2CC[C@]4(C)[C@H](CC[C@@H]5[C@H]6[C@H]7OC[C@@]6(CCC7(C)C)CC[C@]54C)[C@@]2(C)C3)c1 | 2.06 | 2.87 | 2.37 | 2.72 | 2.21 |
| COc1ccc(CCn2n[n+](C)c3c2C(C)(C)[C@@H]2CC[C@]4(C)[C@H](CC[C@@H]5[C@H]6[C@H]7OC[C@@]6(CCC7(C)C)CC[C@]54C)[C@@]2(C)C3)cc1 | 1.97 | 2.85 | 2.39 | 2.91 | 2.09 |
| CCCCCCn1nnc2c1C(C)(C)[C@@H]1CC[C@]3(C)[C@H](CC[C@@H]4[C@H]5[C@H]6OC[C@@]5(CCC6(C)C)CC[C@]43C)[C@@]1(C)C2 | 37.4 | > 80 | 40.9 | > 80 | 51.9 |
| COc1cccc(Cn2nnc3c2C(C)(C)[C@@H]2CC[C@]4(C)[C@H](CC[C@@H]5[C@H]6[C@H]7OC[C@@]6(CCC7(C)C)CC[C@]54C)[C@@]2(C)C3)c1 | 10.4 | 11.2 | 12 | 12.7 | 10.5 |
| COc1cccc(CCn2nnc3c2C(C)(C)[C@@H]2CC[C@]4(C)[C@H](CC[C@@H]5[C@H]6[C@H]7OC[C@@]6(CCC7(C)C)CC[C@]54C)[C@@]2(C)C3)c1 | 25.5 | 23.6 | 39.8 | 31.9 | 20.9 |
| C[n+]1nn(Cc2ccccc2Cl)c2c1C[C@]1(C)[C@H]3CC[C@@H]4[C@H]5[C@H]6OC[C@@]5(CCC6(C)C)CC[C@@]4(C)[C@]3(C)CC[C@H]1C2(C)C | 1.98 | 2.71 | 2.24 | 3.03 | 1.3 |
| COC(Cn1nnc2c1C(C)(C)[C@@H]1CC[C@]3(C)[C@H](CC[C@@H]4[C@H]5[C@H]6OC[C@@]5(CCC6(C)C)CC[C@]43C)[C@@]1(C)C2)OC | > 80 | > 80 | > 80 | > 80 | > 80 |
| CC1(C)CC[C@]23CC[C@]4(C)[C@H](CC[C@@H]5[C@@]6(C)Cc7nnn(Cc8ccccn8)c7C(C)(C)[C@@H]6CC[C@]54C)[C@H]2[C@H]1OC3 | > 80 | > 80 | > 80 | > 80 | > 80 |
